Structures can show the parent of a compound that is named as a salt.
What follows are compounds tested against T1, hITK enzyme (FLAG-tagged full-length hITK) (Homo sapiens, UniProt Q08881) (assay: ITK inhibitory activity (HTRF kinase assay, biotinylated GST-SLP76 substrate)). Details: IC50 calculated from the 2 test compound concentrations sandwiching 50% ITK inhibitory rate.
T1 construct: strongly expressing FLAG-tagged full-length hITK in Sf9 cells; FLAG; made in house; host or cells: Sf9 insect cells (ITK); Escherichia coli (GST-SLP76 substrate)
T1 sequence (Q08881 1-620): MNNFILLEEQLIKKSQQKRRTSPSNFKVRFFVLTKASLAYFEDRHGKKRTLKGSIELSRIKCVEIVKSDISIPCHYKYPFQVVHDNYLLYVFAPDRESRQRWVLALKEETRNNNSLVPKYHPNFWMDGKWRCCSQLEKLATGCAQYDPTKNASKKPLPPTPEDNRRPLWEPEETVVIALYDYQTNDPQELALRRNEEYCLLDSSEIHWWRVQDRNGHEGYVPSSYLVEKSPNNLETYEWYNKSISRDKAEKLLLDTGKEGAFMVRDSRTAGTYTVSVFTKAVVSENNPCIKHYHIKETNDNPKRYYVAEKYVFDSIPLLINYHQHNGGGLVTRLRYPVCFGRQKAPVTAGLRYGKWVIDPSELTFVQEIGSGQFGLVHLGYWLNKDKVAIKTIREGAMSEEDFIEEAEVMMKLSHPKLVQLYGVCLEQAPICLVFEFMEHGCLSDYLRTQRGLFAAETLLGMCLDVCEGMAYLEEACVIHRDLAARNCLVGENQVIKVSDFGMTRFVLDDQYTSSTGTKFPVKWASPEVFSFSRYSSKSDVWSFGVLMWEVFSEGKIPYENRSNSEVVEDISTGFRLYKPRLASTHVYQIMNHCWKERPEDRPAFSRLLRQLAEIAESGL
Assay type: biochemical
Description: (1) Preparation of hITK Enzyme
hITK enzyme was prepared by strongly expressing FLAG-tagged full-length hITK in Sf9 cells, and purifying same by anti-FLAG antibody column.
(2) Preparation of biotinylated GST-SLP76
Biotinylated GST-SLP76 was prepared by strongly expressing GST-tagged SLP76 (aa95-175) in Escherichia coli, purifying same by glutathion sepharose column and biotinylating same.
(3) Preparation of Solution
(i) buffer for dilution: 20 mmol/L 3-(N-morpholino)propanesulfonic acid (pH 7.0) (DOJINDO LABORATORIES), 10 mmol/L magnesium chloride (Sigma-Aldrich Corporation), 1 mmol/L dithiothreitol (Nacalai Tesque, Inc.), 0.1% gelatin (Sigma-Aldrich Corporation)
(ii) substrate solution: 0.2 μg/mL biotinylated GST-SLP76, 100 μmol/L ATP (Sigma-Aldrich Corporation), prepared with buffer for dilution
(iii) test compound solution: test compound, 50% dimethyl sulfoxide (DMSO), prepared with buffer for dilution
(iv) enzyme solution: 50 ng/mL hITK enzyme, prepared with buffer for dilution
(v) control solution: solution after removal of test compound from the mixture of the above-mentioned (i), (ii) and (iii)
(vi) blank solution: solution after removal of ATP from the mixture of the above-mentioned (i), (ii) and (iii)
(vii) detection buffer: 0.1 μg/mL Anti-Phosphotyrosine (PT66)-Cryptate (Cisbio), 2.5 μg/mL streptavidin-binding XL665 (Cisbio), 50 mmol/L 4-(2-hydroxyethyl)-1-piperazineethanesulfonic acid (pH 7.4) (Nacalai Tesque, Inc.), 30 mmol/L EDTA (NipponGene), 0.1% TritonX (Sigma-Aldrich Corporation), 200 mmol/L potassium fluoride (Wako Pure Chemical Industries, Ltd.), 0.05% bovine serum albumin (Sigma-Aldrich Corporation) (4) Measurement of ITK Inhibitory Activity
A substrate solution (25 μL/well), a test compound solution (5 μL/well) and an enzyme solution (20 μL/well) were added into 96 well half-area white plate (plate, Corning Incorporated 3642) to start a kinase reaction. The plate was stood still at room temperature for 10 min. Then, a detection buffer (50 μL/well) was added to the plate. After 2 hr from the addition of the detection buffer, fluorescence intensity at 620 nm (excited at 337 nm), and fluorescence intensity at 665 nm ([…]) were measured by a fluorescence microplate reader.
The Ratio (fluorescence intensity at 665 nm/fluorescence intensity at 620 nm×10000) of each test compound was calculated from the measured fluorescence intensity. Simultaneously, the measurement was performed using a blank solution and a control solution, and % of control value of each test compound was calculated from the following formula. % of control=(Ratio of test compound−Ratio of blank)/(Ratio of control−Ratio of blank)×100 ITK inhibitory rate (%)=100−(% of control)
The IC50 value was calculated from the test compound concentrations at 2 points sandwiching 50% ITK inhibitory rate.
In the test for the compounds of Examples 380 and 381, the ATP concentration of the substrate solutions was 6 μmol/L.

Row | SMILES | IC50 [nM]
1 | CC(=O)N(C)c1ccc2cc(-c3n[nH]c4c3CCC(C)(C)C4)[nH]c2c1 [Example 1, N-[2-(6,6-dimethyl-4,5,6,7-tetrahydro-1H-indazol-3-yl)-1H-indol-6-yl]-N-methylacetamide] | 7
2 | CCN(C(C)=O)c1ccc2cc(-c3n[nH]c4c3CCC(C)(C)C4)[nH]c2c1 [Example 2, N-[2-(6,6-dimethyl-4,5,6,7-tetrahydro-1H-indazol-3-yl)-1H-indol-6-yl]-N-ethylacetamide] | 5
3 | CN(C(=O)OCc1ccccc1)c1ccc2cc(-c3n[nH]c4c3CCC(C)(C)C4)[nH]c2c1 [Example 3, benzyl N-{2-(6,6-dimethyl-4,5,6,7-tetrahydro-1H-indazol-3-yl)-1H-indol-6-yl}-N-methylcarbamate] | 39
4 | C[C@@H](C(=O)N(C)c1ccc2cc(-c3n[nH]c4c3CCC(C)(C)C4)[nH]c2c1)N1CCOCC1 [Example 4, (S)—N-[2-(6,6-dimethyl-4,5,6,7-tetrahydro-1H-indazol-3-yl)-1H-indol-6-yl]-N-methyl-2-(morpholin-4-yl)propionamide] | 2
5 | C[C@@H](C(=O)N(C)c1ccc2cc(-c3n[nH]c4c3CCC(C)(C)C4)[nH]c2c1)N1CCOCC1 [Example 5, (S)—N-[2-(6,6-dimethyl-4,5,6,7-tetrahydro-1H-indazol-3-yl)-1H-indol-6-yl]-N-methyl-2-(morpholin-4-yl)propionamide hydrochloride] | 3
6 | CN(C(=O)CN1CCOCC1=O)c1ccc2cc(-c3n[nH]c4c3CCC(C)(C)C4)[nH]c2c1 [Example 6, N-[2-(6,6-dimethyl-4,5,6,7-tetrahydro-1H-indazol-3-yl)-1H-indol-6-yl]-N-methyl-2-(3-oxomorpholin-4-yl)acetamide] | 2
7 | CC(CO)N(C)C(=O)c1ccc2cc(-c3n[nH]c4c3CCC(C)(C)C4)[nH]c2c1 (stereo not drawn) [Example 7, 2-(6,6-dimethyl-4,5,6,7-tetrahydro-1H-indazol-3-yl)-1H-indole-6-carboxylic acid (2-hydroxy-1-methylethyl)methylamide] | 39
8 | CN(C(=O)CN1CCCCC1=O)c1ccc2cc(-c3n[nH]c4c3CCC(C)(CO)C4)[nH]c2c1 (stereo not drawn) [Example 8, N-[2-(6-hydroxymethyl-6-methyl-4,5,6,7-tetrahydro-1H-indazol-3-yl)-1H-indol-6-yl]-N-methyl-2-(2-oxopiperidin-1-yl)acetamide] | 3
9 | CC1(C)CCc2c(-c3cc4ccc(C(=O)Nc5ccccc5)cc4[nH]3)n[nH]c2C1 [Example 9] | 334
10 | CN(C(=O)c1ccc2cc(-c3n[nH]c4c3CCC(C)(C)C4)[nH]c2c1)c1ccccc1 [Example 10] | 45
11 | CC(C)(C)CNC(=O)c1ccc2cc(-c3n[nH]c4c3CCC(C)(C)C4)[nH]c2c1 [Example 11] | 36
12 | CC(C)CNC(=O)c1ccc2cc(-c3n[nH]c4c3CCC(C)(C)C4)[nH]c2c1 [Example 12] | 33
13 | CC(NC(=O)c1ccc2cc(-c3n[nH]c4c3CCC(C)(C)C4)[nH]c2c1)C(C)(C)C (stereo not drawn) [Example 13] | 99
14 | CN1CCN(C(=O)c2ccc3cc(-c4n[nH]c5c4CCC(C)(C)C5)[nH]c3c2)CC1 [Example 14] | 40
15 | CN(CC(C)(C)C)C(=O)c1ccc2cc(-c3n[nH]c4c3CCC(C)(C)C4)[nH]c2c1 [Example 15] | 9
16 | CC1(C)CCc2c(-c3cc4ccc(C(=O)N5CCC(O)CC5)cc4[nH]3)n[nH]c2C1 [Example 16] | 25
17 | CC(C)CN(C)C(=O)c1ccc2cc(-c3n[nH]c4c3CCC(C)(C)C4)[nH]c2c1 [Example 17] | 5
18 | CC(N(C)C(=O)c1ccc2cc(-c3n[nH]c4c3CCC(C)(C)C4)[nH]c2c1)C(C)(C)C (stereo not drawn) [Example 18] | 45
19 | CC1(C)CCc2c(-c3cc4ccc(C(=O)N5CCOCC5)cc4[nH]3)n[nH]c2C1 [Example 19] | 23
20 | CC(CO)NC(=O)c1ccc2cc(-c3n[nH]c4c3CCC(C)(C)C4)[nH]c2c1 (stereo not drawn) [Example 20] | 47
21 | COCC(C)NC(=O)c1ccc2cc(-c3n[nH]c4c3CCC(C)(C)C4)[nH]c2c1 (stereo not drawn) [Example 21] | 30
22 | COCC(C)N(C)C(=O)c1ccc2cc(-c3n[nH]c4c3CCC(C)(C)C4)[nH]c2c1 (stereo not drawn) [Example 22] | 40
23 | CC(C)C(CO)NC(=O)c1ccc2cc(-c3n[nH]c4c3CCC(C)(C)C4)[nH]c2c1 (stereo not drawn) [Example 23] | 18
24 | COCC(NC(=O)c1ccc2cc(-c3n[nH]c4c3CCC(C)(C)C4)[nH]c2c1)C(C)C (stereo not drawn) [Example 24] | 25
25 | CC(C)C(CO)N(C)C(=O)c1ccc2cc(-c3n[nH]c4c3CCC(C)(C)C4)[nH]c2c1 (stereo not drawn) [Example 25] | 26
26 | COCC(C(C)C)N(C)C(=O)c1ccc2cc(-c3n[nH]c4c3CCC(C)(C)C4)[nH]c2c1 (stereo not drawn) [Example 26] | 85
27 | CC1(C)CCc2c(-c3cc4ccc(NC(=O)c5ccccc5)cc4[nH]3)n[nH]c2C1 [Example 27] | 327

Now from value to compound:

Row | IC50 [nM] | SMILES
28 | 201 | CCC(=O)Nc1ccc2cc(-c3n[nH]c4c3CCC(C)(C)C4)[nH]c2c1 [Example 28]
29 | 85 | CC1(C)CCc2c(-c3cc4ccc(NC(N)=O)cc4[nH]3)n[nH]c2C1 [Example 29]
30 | 10 | CN(C(=O)c1ccccc1)c1ccc2cc(-c3n[nH]c4c3CCC(C)(C)C4)[nH]c2c1 [Example 30]
31 | 34 | CN(C(=O)c1cccc(C(F)(F)F)c1)c1ccc2cc(-c3n[nH]c4c3CCC(C)(C)C4)[nH]c2c1 [Example 31]
32 | 4 | CCC(=O)N(C)c1ccc2cc(-c3n[nH]c4c3CCC(C)(C)C4)[nH]c2c1 [Example 32]
33 | 11 | CN(C(=O)C1CCCC1)c1ccc2cc(-c3n[nH]c4c3CCC(C)(C)C4)[nH]c2c1 [Example 33]
34 | 5 | CC(O)C(=O)N(C)c1ccc2cc(-c3n[nH]c4c3CCC(C)(C)C4)[nH]c2c1 (stereo not drawn) [Example 34]
35 | 5 | CN(C(=O)CO)c1ccc2cc(-c3n[nH]c4c3CCC(C)(C)C4)[nH]c2c1 [Example 35]
36 | < 3 | COCC(=O)N(C)c1ccc2cc(-c3n[nH]c4c3CCC(C)(C)C4)[nH]c2c1 [Example 36]
37 | 8 | CN(C(=O)C(C)(C)O)c1ccc2cc(-c3n[nH]c4c3CCC(C)(C)C4)[nH]c2c1 [Example 37]
38 | 5 | CCCC(=O)N(C)c1ccc2cc(-c3n[nH]c4c3CCC(C)(C)C4)[nH]c2c1 [Example 38]
39 | 4 | CC(C)C(=O)N(C)c1ccc2cc(-c3n[nH]c4c3CCC(C)(C)C4)[nH]c2c1 [Example 39]
40 | 6 | CC(C)CC(=O)N(C)c1ccc2cc(-c3n[nH]c4c3CCC(C)(C)C4)[nH]c2c1 [Example 40]
41 | 4 | COC(C)C(=O)N(C)c1ccc2cc(-c3n[nH]c4c3CCC(C)(C)C4)[nH]c2c1 (stereo not drawn) [Example 41]
42 | 22 | COC(C)(C)C(=O)N(C)c1ccc2cc(-c3n[nH]c4c3CCC(C)(C)C4)[nH]c2c1 [Example 42]
43 | 6 | CN(C(=O)C(O)CO)c1ccc2cc(-c3n[nH]c4c3CCC(C)(C)C4)[nH]c2c1 (stereo not drawn) [Example 43]
44 | < 3 | CCOCC(=O)N(C)c1ccc2cc(-c3n[nH]c4c3CCC(C)(C)C4)[nH]c2c1 [Example 44]
45 | < 3 | CN(C(=O)COc1ccccc1)c1ccc2cc(-c3n[nH]c4c3CCC(C)(C)C4)[nH]c2c1 [Example 45]

— patent US8299070B2, “Indole compounds and pharmaceutical use thereof” (Japan Tobacco Inc., priority 2009, dated 2012)
